Laboratory results: ChEMBL document CHEMBL1156854, “Design and synthesis of piperazine-indole p38 alpha MAP kinase inhibitors with improved pharmacokinetic profiles” (Bioorg Med Chem Lett, 2010)

Columns and labels:
Liver microsomes [1] = experiment: Metabolic stability in rat liver microsomes assessed as parent compound level; assay type: ADME, Microsome
[2] = Metabolic stability in dog liver microsomes assessed as parent compound level; assay type: ADME, Canis lupus familiaris, Microsome
[3] = Metabolic stability in monkey liver microsomes assessed as parent compound level; assay type: ADME, Macaca mulatta, Microsome; conditions: rhesus monkey
Liver microsomes [4] = experiment: Metabolic stability in human liver microsomes assessed as parent compound level; assay type: ADME, Microsome
Liver microsomes [5] = experiment: Metabolic stability in rat liver microsomes assessed as demethylated metabolite level; assay type: ADME, Microsome
[6] = Metabolic stability in monkey liver microsomes assessed as demethylated metabolite level; assay type: ADME, Macaca mulatta, Microsome; conditions: rhesus monkey
[7] = Clearance in po dosed rat; assay type: ADME, organism-based; conditions: in vivo
[8] = Oral bioavailability in rat; assay type: ADME, organism-based; conditions: in vivo
[9] = Oral bioavailability in dog; assay type: ADME, organism-based, Canis lupus familiaris; conditions: in vivo
[10] = Clearance in po dosed dog; assay type: ADME, organism-based, Canis lupus familiaris; conditions: in vivo
Rattus norvegicus = experiment: Volume of distribution in po dosed rat; assay type: ADME, organism-based; conditions: in vivo
Canis familiaris = experiment: Volume of distribution in po dosed dog; assay type: ADME, organism-based, Canis lupus familiaris; conditions: in vivo
[11] = Cmax in rat; assay type: ADME, organism-based; conditions: in vivo
[12] = Cmax in dog; assay type: ADME, organism-based, Canis lupus familiaris; conditions: in vivo
[13] = Cmax in monkey; assay type: ADME, organism-based, Macaca mulatta; conditions: rhesus monkey, in vivo
[14] = Tmax in rat; assay type: ADME, organism-based; conditions: in vivo
[15] = Tmax in dog; assay type: ADME, organism-based, Canis lupus familiaris; conditions: in vivo
[16] = Tmax in monkey; assay type: ADME, organism-based, Macaca mulatta; conditions: rhesus monkey, in vivo
[17] = AUC in iv dosed rat; assay type: ADME, organism-based; conditions: plasma
[18] = AUC in iv dosed dog; assay type: ADME, organism-based, Canis lupus familiaris; conditions: plasma
[19] = AUC in po dosed rat; assay type: ADME, organism-based; conditions: plasma
[20] = AUC in po dosed dog; assay type: ADME, organism-based, Canis lupus familiaris; conditions: plasma
[21] = AUC in po dosed monkey; assay type: ADME, organism-based, Macaca mulatta; conditions: rhesus monkey, plasma
[22] = Oral bioavailability in monkey; assay type: ADME, organism-based, Macaca mulatta; conditions: rhesus monkey, in vivo

Molecule C[C@@H]1CN(C(c2ccccc2)c2ccccc2)[C@@H](C)CN1C(=O)c1cc2c(C(=O)C(=O)N(C)C)cn(C)c2cc1Cl has a Stability (Liver microsomes [1]) of 83.9%, a Stability [2] of 91.7% and a Stability [3] of 71.4%. For the same molecule, the Stability (Liver microsomes [4]) was 90.8%, the Stability (Liver microsomes [5]) was 9.4% and the Stability [6] was 19.5%. For the same molecule, the CL/F [7] was 20 mL/min/kg, the bioavailability [8] was 31% and the bioavailability [9] was 33%. The CL/F [10] was 3.33 mL/min/kg, the Vd (Rattus norvegicus) was 2.7 L/kg and the Vd (Canis familiaris) was 6.5 L/kg. It also gave a Cmax [11] of 367 ng/mL, a Cmax [12] of 899 ng/mL and a Cmax [13] of 360 ng/mL. It also gave a Tmax [14] of 1.2 h, a Tmax [15] of 1.3 h and a Tmax [16] of 2 h. It also gave an AUC [17] of 810 ng·h/mL, an AUC [18] of 3430 ng·h/mL and an AUC [19] of 1270 ng·h/mL. It also gave an AUC [20] of 5610 ng·h/mL and an AUC [21] of 1830 ng·h/mL.

C[C@@H]1CN(Cc2ccc(F)cc2)[C@@H](C)CN1C(=O)c1cc2c(C(=O)C(=O)N(C)C)cn(C)c2cc1Cl [TALMAPIMOD] gave a Stability (Liver microsomes [1]) of 65.8%, a Stability [2] of 94.5% and a Stability [3] of 51.2%. It also gave a Stability (Liver microsomes [4]) of 65.1%, a Stability (Liver microsomes [5]) of 3.2% and a Stability [6] of 11.9%. The bioavailability [9] was 69% and the bioavailability [22] was 12%.
